Test results published in patent US9695426B2, “Biofuel production by recombinant microorganisms” (The Regents of the University of California, priority 2007, dated 2017).

How the values were obtained:
[1] = system: native 1-butanol producers; conditions: cited from earlier work
[2] = system: E. coli culture expressing kivd; test: Alcohol productions with the supply of 2-keto acids; format: cell-based; conditions: 2-keto acid added to E. coli culture expressing kivd
Description: The addition of various 2-keto acids (see Table 13) to the E. coli culture expressing kivd confirmed the specific production of the corresponding alcohols by 2- to 23-fold.

AHAS I = AHAS I (Escherichia coli, UniProt P08142); conditions: read-out: Km value for 2-ketobutyrate; cited from earlier work
Chain of AHAS I (P0ADF8 whole entry): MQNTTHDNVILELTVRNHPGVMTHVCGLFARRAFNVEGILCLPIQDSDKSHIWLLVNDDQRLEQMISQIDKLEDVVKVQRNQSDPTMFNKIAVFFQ
Chain of AHAS I (P08142 whole entry): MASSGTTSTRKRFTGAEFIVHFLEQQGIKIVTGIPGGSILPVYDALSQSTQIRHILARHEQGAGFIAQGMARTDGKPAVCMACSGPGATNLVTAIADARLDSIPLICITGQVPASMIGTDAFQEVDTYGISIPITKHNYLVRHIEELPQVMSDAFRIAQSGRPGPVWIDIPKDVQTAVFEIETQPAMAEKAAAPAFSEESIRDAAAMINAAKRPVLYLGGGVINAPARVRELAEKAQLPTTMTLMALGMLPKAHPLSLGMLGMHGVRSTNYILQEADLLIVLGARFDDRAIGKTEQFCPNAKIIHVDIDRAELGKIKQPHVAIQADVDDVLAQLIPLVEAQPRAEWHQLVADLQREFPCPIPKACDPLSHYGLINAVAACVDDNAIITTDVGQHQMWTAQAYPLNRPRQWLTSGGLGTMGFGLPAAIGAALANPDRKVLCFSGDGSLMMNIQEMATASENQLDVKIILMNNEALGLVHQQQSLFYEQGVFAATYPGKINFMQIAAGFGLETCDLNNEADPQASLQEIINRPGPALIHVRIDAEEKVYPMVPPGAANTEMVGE

E. coli IlvA = E. coli IlvA (Escherichia coli, UniProt P04968); conditions: purified E. coli IlvA in the absence of isoleucine; cited from earlier work
Chain of E. coli IlvA (P04968 whole entry): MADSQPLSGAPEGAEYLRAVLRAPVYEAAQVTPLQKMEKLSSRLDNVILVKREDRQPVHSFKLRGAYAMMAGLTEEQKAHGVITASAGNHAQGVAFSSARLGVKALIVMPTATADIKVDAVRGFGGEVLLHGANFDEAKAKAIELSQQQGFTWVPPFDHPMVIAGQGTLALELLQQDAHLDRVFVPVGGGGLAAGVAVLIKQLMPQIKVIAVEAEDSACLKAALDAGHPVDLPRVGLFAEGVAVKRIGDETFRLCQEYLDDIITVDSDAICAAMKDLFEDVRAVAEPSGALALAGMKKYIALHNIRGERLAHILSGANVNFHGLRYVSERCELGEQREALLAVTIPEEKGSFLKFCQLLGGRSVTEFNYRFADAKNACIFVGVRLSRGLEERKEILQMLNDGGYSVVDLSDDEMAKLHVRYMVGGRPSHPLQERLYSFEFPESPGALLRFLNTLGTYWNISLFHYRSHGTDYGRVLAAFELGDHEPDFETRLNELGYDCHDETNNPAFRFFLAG

E. coli TdcB = E. coli TdcB (Escherichia coli, UniProt P0AGF6); conditions: E. coli TdcB in the absence of AMP; cited from earlier work
E. coli BW25113 = test: propanol and butanol production via the threonine pathway with alternative enzymes; format: cell-based; conditions: BW ΔmetA, Δtdh, ΔilvB, ΔilvI; tdcB with leuABCD on pCS20; 72 hours
Experimental: For some alcohol fermentation experiments, single colonies were picked from LB plates and inoculated into 3 ml of LB media with the appropriate antibiotics (ampicillin 100 μg/ml, kanamycin 50 μg/ml, and spectinomycin 50 μg/ml). The overnight culture grown in LB at 37° C. in a rotary shaker (250 rpm) was then inoculated (1% vol/vol) into 20 ml of M9 medium (6 g Na2HPO4, 3 g KH2PO4, 0.5 g NaCl, 1 g NH4Cl, 1 mM MgSO4, 10 mg vitamin B1 and 0.1 mM CaCl2 per liter of water) containing 30 g/L glucose, 5 g/L yeast extract, appropriate antibiotics, and 1000× Trace Metal Mix A5 (2.86 g H3BO3, 1.81 g MnCl2.4H2O, 0.222 g ZnSO4.7H2O, 0.39 g Na2MoO4.2H2O, 0.079 g CuSO4.5H2O, 49.4 mg Co(NO3)2.6H2O per liter water) in 250 ml conical flask. The culture was allowed to grow at 37° C. in a rotary shaker (250 rpm) to an OD600 of 0.4˜0.6, then 12 ml of the culture was transferred to a 250 ml screw capped conical flask and induced with 1 mM IPTG. The induced cultures were grown at 30° C. in a rotary shaker (240 rpm). Samples were taken throughout the next three to four days by opening the screwed caps of the flasks, and culture broths were either centrifuged or filtered to retrieve the supernatant. […]
Metabolite Detections. The produced alcohol compounds were quantified by a gas chromatograph (GC) equipped with flame ionization detector. […]

In the case of CCCCO [1-butanol], the “tolerated 1-butanol concentration” value [1] is listed as “up to 2%”.

In the case of CCC(=O)C(=O)O [2-ketobutyrate], the “Product 1-butanol” value [2] is reported as 492 µM, the “Product 1-propanol” value [2] is reported as 2138 µM and the “Product 2-methyl-1-butanol” value [2] is reported as 1315 µM. The “Product 2-phenylethanol” value [2] was 26 µM, the Product isobutanol [2] was 98 µM and the Km (AHAS I) was ~5 mM.

In the case of C[C@@H](O)[C@H](N)C(=O)O [threonine], the Km (E. coli IlvA) is listed as 8 mM and the Km (E. coli TdcB) is listed as 20 mM.

B1: TdcB: E. coli's catabolic threonine dehydratase (protein, UniProt P0AGF6 1-329, looked up)
L-threonine dehydratase …: MHITYDLPVAIDDIIEAKQRLAGRIYKTGMPRSNYFSERCKGEIFLKFENMQRTGSFKIRGAFNKLSSLTDAEKRKGVVACSAGNHAQGVSLSCAMLGIDGKVVMPKGAPKSKVAATCDYSAEVVLHGDNFNDTIAKVSEIVEMEGRIFIPPYDDPKVIAGQGTIGLEIMEDLYDVDNVIVPIGGGGLIAGIAVAIKSINPTIRVIGVQSENVHGMAASFHSGEITTHRTTGTLADGCDVSRPGNLTYEIVRELVDDIVLVSEDEIRNSMIALIQRNKVVTEGAGALACAALLSGKLDQYIQNRKTVSIISGGNIDLSRVSQITGFVDA
In the case of B1, the “lower production of both target alcohols compared to IlvA” value (E. coli BW25113) is reported as 70%.
